Measurements: patent publication US10856562B2, “Flavor composition and edible compositions containing same” (MARS, INCORPORATED, priority 2013, dated 2020)
“Also recorded” adds a separate entry of the source. Square brackets hold non-standard residues; d marks the D form. Ends that are not written are not given here. pGlu = O=C1CC[C@@H](C(=O)O)N1

Tested on: panelists
Test: Descriptive profile (Spectrum method) of peptide in 0.2% NaCl solution, in-mouth
Assay type: in vivo, human
Conditions: for Astringent, in-mouth perception / Bitter, in-mouth perception / Flinty/Mineral, in-mouth perception / Metallic, in-mouth perception / Numbing, in-mouth perception / Salt, in-mouth perception (mean salt perception in-mouth) / Sour, in-mouth perception / Sweet, in-mouth perception: mean score, 15-point scale; for Level of the aromatics, basic tastes and chemical feeling factors in-mouth with increasing concentration: 0.1 to 40.0/50.0 ppb; for Salt perception in-mouth as the concentration increases: 0.1 to 40.0/50.0 ppb in 0.2% NaCl; for Umami like swelling of lips and tongue, in-mouth: all levels; for Umami like feeling factor of lip and tongue swelling: both in-mouth and after expectoration
Protocol: Descriptive Profiles (Flavor and Chemical Feeling Factors) of five use levels of a pGlu-Val-Leu flavor composition were determined using the Spectrum™ method. The five use levels were as follows: 0.1 ppb, 0.5 ppb, 1.0 ppb, 10.0 ppb and 40.0 ppb.
Data was collected for the flavor and chemical feeling factors of the product in-mouth for each of the five use levels according to the following protocol. One replication was collected for the flavor and chemical feeling factors of the product in-mouth. 6-9 panelists evaluated per session.
2. Each panelist tasted a test sample (0.1 ppb, 0.5 ppb, 1.0 ppb, 10.0 ppb or 40.0 ppb all in 0.2% NaCl solution). Only one sample was tasted per session.
Descriptive attributes (e.g., taste, flavor and chemical feeling factors) of six use levels of pGlu-Val-Leu (SE-13), pGlu-Val (SE-14) and pGlu-Val-Val (SE-17) flavor composition peptides were determined. The six use levels were as follows: 0.1 ppb, 0.5 ppb, 1.0 ppb, 10.0 ppb, 40.0 ppb and 50.0 ppb.
Data was collected for the attributes of the product in-mouth for the use levels according to the following protocol: • The samples were analyzed for flavor and aftertaste by six-nine members of a panel, trained and experienced in appearance, flavor and texture evaluation using the Spectrum™ method. Samples in solution were evaluated across multiple panel sessions. • The strength of each attribute was rated on a 15-point scale, where 0=none and 15=very strong. • This scale incorporates the ability to use tenths of a point and therefore has the potential of 150 scale differentiations. • The scale may be expanded beyond 15 points to include extreme ratings if necessary.
Attribute Perception Protocol • The panelists evaluated each sample using the following procedure • Descriptive Profiles (flavor and chemical feeling factors) of 5 levels of salt enhancing solutions • Individual data was collected for the flavor and chemical feeling factors of the product in-mouth • Increased Salt Perception Protocol • Each panelist tasted salt 5 reference (0.35% salt solution)—to ground themselves on salt intensity of 5.0. • Each panelist tasted the test sample (0.1 ppb, 0.5 ppb, 1.0 ppb, 10.0 ppb or 40.0/50.0 ppb all in 0.2% NaCl solution: only one per session) • Each panelist then re-tasted the salt 5 reference and rated it for salt intensity as well as any other basic taste, chemical feeling factor, or aromatic perceived. This captured any increased salt perception indicated by the test sample as well as any other perceptions present. • Return to Baseline Protocol • After evaluating the sample for salt & other perceptions, panelists re-tasted the salt 5 reference at 1 minute intervals until their perception of the salt 5 saltiness intensity had returned to 5.0. Each panelist recorded their salt intensity at each interval and took qualitative notes on other perceptions seen in aftertaste. Sample Preparation
The 0.1, 0.5, 1.0 10, 40, and 50 ppb test samples of the flavor composition peptides were prepared in water as described in table 4.
The panelists evaluated each sample for the attributes described in table 5.

Substance: [pGlu]-Val [SE-14]
- Astringent, in-mouth perception (0.1 ppb in 0.2% NaCl): 0.0
- Bitter, in-mouth perception (0.1 ppb in 0.2% NaCl): 0.0
- Flinty/Mineral, in-mouth perception (0.1 ppb in 0.2% NaCl): 0.8
- Metallic, in-mouth perception (0.1 ppb in 0.2% NaCl): 0.3
- Numbing, in-mouth perception (0.1 ppb in 0.2% NaCl): 0.0
- Salt, in-mouth perception (mean salt perception in-mouth) (0.1 ppb in 0.2% NaCl): 1.8
- Sour, in-mouth perception (0.1 ppb in 0.2% NaCl): 0.0
- Sweet, in-mouth perception (0.1 ppb in 0.2% NaCl): 0.0
- Level of the aromatics, basic tastes and chemical feeling factors in-mouth with increasing concentration: does not increase
- Salt perception in-mouth as the concentration increases: increases slightly; also recorded: slight increase
- Astringent, in-mouth perception (0.5 ppb in 0.2% NaCl): 0.1
- Bitter, in-mouth perception (0.5 ppb in 0.2% NaCl): 0.0
- Flinty/Mineral, in-mouth perception (0.5 ppb in 0.2% NaCl): 0.6
- Metallic, in-mouth perception (0.5 ppb in 0.2% NaCl): 0.1
- Numbing, in-mouth perception (0.5 ppb in 0.2% NaCl): 0.0
- Salt, in-mouth perception (mean salt perception in-mouth) (0.5 ppb in 0.2% NaCl): 2.5
- Sour, in-mouth perception (0.5 ppb in 0.2% NaCl): 0.0
- Sweet, in-mouth perception (0.5 ppb in 0.2% NaCl): 0.0
- Astringent, in-mouth perception (1.0 ppb in 0.2% NaCl): 0.1
- Bitter, in-mouth perception (1.0 ppb in 0.2% NaCl): 0.0
- Flinty/Mineral, in-mouth perception (1.0 ppb in 0.2% NaCl): 0.9
- Metallic, in-mouth perception (1.0 ppb in 0.2% NaCl): 0.1
- Numbing, in-mouth perception (1.0 ppb in 0.2% NaCl): 0.0
- Salt, in-mouth perception (mean salt perception in-mouth) (1.0 ppb in 0.2% NaCl): 2.9
- Sour, in-mouth perception (1.0 ppb in 0.2% NaCl): 0.0
- Sweet, in-mouth perception (1.0 ppb in 0.2% NaCl): 0.0
- Astringent, in-mouth perception (10.0 ppb in 0.2% NaCl): 0.0
- Bitter, in-mouth perception (10.0 ppb in 0.2% NaCl): 0.0
- Flinty/Mineral, in-mouth perception (10.0 ppb in 0.2% NaCl): 0.9
- Metallic, in-mouth perception (10.0 ppb in 0.2% NaCl): 0.3
- Numbing, in-mouth perception (10.0 ppb in 0.2% NaCl): 0.0
- Salt, in-mouth perception (mean salt perception in-mouth) (10.0 ppb in 0.2% NaCl): 3.3
- Sour, in-mouth perception (10.0 ppb in 0.2% NaCl): 0.0
- Sweet, in-mouth perception (10.0 ppb in 0.2% NaCl): 0.0
- Astringent, in-mouth perception (50.0 ppb in 0.2% NaCl): 0.0
- Bitter, in-mouth perception (50.0 ppb in 0.2% NaCl): 0.0
- Flinty/Mineral, in-mouth perception (50.0 ppb in 0.2% NaCl): 0.7
- Metallic, in-mouth perception (50.0 ppb in 0.2% NaCl): 0.2
- Numbing, in-mouth perception (50.0 ppb in 0.2% NaCl): 0.0
- Salt, in-mouth perception (mean salt perception in-mouth) (50.0 ppb in 0.2% NaCl): 3.2
- Sour, in-mouth perception (50.0 ppb in 0.2% NaCl): 0.0
- Sweet, in-mouth perception (50.0 ppb in 0.2% NaCl): 0.0
- Umami like swelling of lips and tongue, in-mouth: Some panelists also experience Umami like swelling of lips and tongue
- Umami like feeling factor of lip and tongue swelling: Shows umami like feeling factor of lip and tongue swelling

Substance: [pGlu]-Val-Leu [SE-13]
- Astringent, in-mouth perception (0.1 ppb in 0.2% NaCl): 0.0
- Bitter, in-mouth perception (0.1 ppb in 0.2% NaCl): 0.0
- Flinty/Mineral, in-mouth perception (0.1 ppb in 0.2% NaCl): 0.1
- Metallic, in-mouth perception (0.1 ppb in 0.2% NaCl): 0.1
- Numbing, in-mouth perception (0.1 ppb in 0.2% NaCl): 0.0
- Salt, in-mouth perception (mean salt perception in-mouth) (0.1 ppb in 0.2% NaCl): 2.3
- Sour, in-mouth perception (0.1 ppb in 0.2% NaCl): 0.0
- Sweet, in-mouth perception (0.1 ppb in 0.2% NaCl): 0.0
- Level of the aromatics, basic tastes and chemical feeling factors in-mouth with increasing concentration: does not increase
- Salt perception in-mouth as the concentration increases: does not increase notably; also recorded: Does not show a notable increase
- Salt perception in-mouth as the concentration increases (listed as pGlu-Val-Leu): did not significantly increase
- Astringent, in-mouth perception (0.5 ppb in 0.2% NaCl): 0.0
- Bitter, in-mouth perception (0.5 ppb in 0.2% NaCl): 0.0
- Flinty/Mineral, in-mouth perception (0.5 ppb in 0.2% NaCl): 0.3
- Metallic, in-mouth perception (0.5 ppb in 0.2% NaCl): 0.3
- Numbing, in-mouth perception (0.5 ppb in 0.2% NaCl): 0.0
- Salt, in-mouth perception (mean salt perception in-mouth) (0.5 ppb in 0.2% NaCl): 2.8
- Sour, in-mouth perception (0.5 ppb in 0.2% NaCl): 0.0
- Sweet, in-mouth perception (0.5 ppb in 0.2% NaCl): 0.2
- Astringent, in-mouth perception (1.0 ppb in 0.2% NaCl): 0.0
- Bitter, in-mouth perception (1.0 ppb in 0.2% NaCl): 0.0
- Flinty/Mineral, in-mouth perception (1.0 ppb in 0.2% NaCl): 0.5
- Metallic, in-mouth perception (1.0 ppb in 0.2% NaCl): 0.1
- Numbing, in-mouth perception (1.0 ppb in 0.2% NaCl): 0.0
- Salt, in-mouth perception (mean salt perception in-mouth) (1.0 ppb in 0.2% NaCl): 2.3
- Sour, in-mouth perception (1.0 ppb in 0.2% NaCl): 0.0
- Sweet, in-mouth perception (1.0 ppb in 0.2% NaCl): 0.0
- Astringent, in-mouth perception (10.0 ppb in 0.2% NaCl): 0.0
- Bitter, in-mouth perception (10.0 ppb in 0.2% NaCl): 0.0
- Flinty/Mineral, in-mouth perception (10.0 ppb in 0.2% NaCl): 0.3
- Metallic, in-mouth perception (10.0 ppb in 0.2% NaCl): 0.1
- Numbing, in-mouth perception (10.0 ppb in 0.2% NaCl): 0.0
- Salt, in-mouth perception (mean salt perception in-mouth) (10.0 ppb in 0.2% NaCl): 3.1
- Sour, in-mouth perception (10.0 ppb in 0.2% NaCl): 0.0
- Sweet, in-mouth perception (10.0 ppb in 0.2% NaCl): 0.0
- Astringent, in-mouth perception (40.0 ppb in 0.2% NaCl): 0.0
- Bitter, in-mouth perception (40.0 ppb in 0.2% NaCl): 0.0
- Flinty/Mineral, in-mouth perception (40.0 ppb in 0.2% NaCl): 0.4
- Metallic, in-mouth perception (40.0 ppb in 0.2% NaCl): 0.1
- Numbing, in-mouth perception (40.0 ppb in 0.2% NaCl): 0.0
- Salt, in-mouth perception (mean salt perception in-mouth) (40.0 ppb in 0.2% NaCl): 2.8
- Sour, in-mouth perception (40.0 ppb in 0.2% NaCl): 0.0
- Sweet, in-mouth perception (40.0 ppb in 0.2% NaCl): 0.0
- Umami like swelling of lips and tongue, in-mouth: Panelists also experience Umami like swelling of lips and tongue
- Umami like feeling factor of lip and tongue swelling: Shows umami like feeling factor of lip and tongue swelling

Substance: [pGlu]-Val-Val [SE-17]
- Astringent, in-mouth perception (0.1 ppb in 0.2% NaCl): 0.0
- Bitter, in-mouth perception (0.1 ppb in 0.2% NaCl): 0.0
- Flinty/Mineral, in-mouth perception (0.1 ppb in 0.2% NaCl): 0.7
- Metallic, in-mouth perception (0.1 ppb in 0.2% NaCl): 0.0
- Numbing, in-mouth perception (0.1 ppb in 0.2% NaCl): 0.0
- Salt, in-mouth perception (mean salt perception in-mouth) (0.1 ppb in 0.2% NaCl): 3.1
- Sour, in-mouth perception (0.1 ppb in 0.2% NaCl): 0.0
- Sweet, in-mouth perception (0.1 ppb in 0.2% NaCl): 0.0
- Level of the aromatics, basic tastes and chemical feeling factors in-mouth with increasing concentration: does not increase
- Salt perception in-mouth as the concentration increases: does not increase notably; also recorded: Does not show a notable increase; also recorded: did not necessarily increase
- Astringent, in-mouth perception (0.5 ppb in 0.2% NaCl): 0.0
- Bitter, in-mouth perception (0.5 ppb in 0.2% NaCl): 0.0
- Flinty/Mineral, in-mouth perception (0.5 ppb in 0.2% NaCl): 0.8
- Metallic, in-mouth perception (0.5 ppb in 0.2% NaCl): 0.3
- Numbing, in-mouth perception (0.5 ppb in 0.2% NaCl): 0.0
- Salt, in-mouth perception (mean salt perception in-mouth) (0.5 ppb in 0.2% NaCl): 4.0
- Sour, in-mouth perception (0.5 ppb in 0.2% NaCl): 0.0
- Sweet, in-mouth perception (0.5 ppb in 0.2% NaCl): 0.0
- Astringent, in-mouth perception (1.0 ppb in 0.2% NaCl): 0.0
- Bitter, in-mouth perception (1.0 ppb in 0.2% NaCl): 0.0
- Flinty/Mineral, in-mouth perception (1.0 ppb in 0.2% NaCl): 0.5
- Metallic, in-mouth perception (1.0 ppb in 0.2% NaCl): 0.0
- Numbing, in-mouth perception (1.0 ppb in 0.2% NaCl): 0.0
- Salt, in-mouth perception (mean salt perception in-mouth) (1.0 ppb in 0.2% NaCl): 2.8
- Sour, in-mouth perception (1.0 ppb in 0.2% NaCl): 0.0
- Sweet, in-mouth perception (1.0 ppb in 0.2% NaCl): 0.0
- Astringent, in-mouth perception (10.0 ppb in 0.2% NaCl): 0.0
- Bitter, in-mouth perception (10.0 ppb in 0.2% NaCl): 0.0
- Flinty/Mineral, in-mouth perception (10.0 ppb in 0.2% NaCl): 0.5
- Metallic, in-mouth perception (10.0 ppb in 0.2% NaCl): 0.0
- Numbing, in-mouth perception (10.0 ppb in 0.2% NaCl): 0.0
- Salt, in-mouth perception (mean salt perception in-mouth) (10.0 ppb in 0.2% NaCl): 3.6
- Sour, in-mouth perception (10.0 ppb in 0.2% NaCl): 0.0
- Sweet, in-mouth perception (10.0 ppb in 0.2% NaCl): 0.0
- Astringent, in-mouth perception (50.0 ppb in 0.2% NaCl): 0.0
- Bitter, in-mouth perception (50.0 ppb in 0.2% NaCl): 0.0
- Flinty/Mineral, in-mouth perception (50.0 ppb in 0.2% NaCl): 0.5
- Metallic, in-mouth perception (50.0 ppb in 0.2% NaCl): 0.0
- Numbing, in-mouth perception (50.0 ppb in 0.2% NaCl): 0.0
- Salt, in-mouth perception (mean salt perception in-mouth) (50.0 ppb in 0.2% NaCl): 3.9
- Sour, in-mouth perception (50.0 ppb in 0.2% NaCl): 0.0
- Sweet, in-mouth perception (50.0 ppb in 0.2% NaCl): 0.0
- Umami like swelling of lips and tongue, in-mouth: Some panelists also experience Umami like swelling of lips and tongue
- Umami like feeling factor of lip and tongue swelling: Shows umami like feeling factor of lip and tongue swelling
- Levels of salt perception in-mouth, comparison of SE-13, SE-14 and SE-17 (overall): highest levels
